From US20090170762A1, “Treatment of Diabetes Related Obesity” (UUTech Limited, priority 2005, published 2009)
Ends that are not written are not given here.

What was measured:
ob/ob mice [1] = experiment: 14 once-daily injections of GIP analogues in ob/ob mice; assay type: in vivo, mouse; settings: 14 days daily, insulin 50 U/kg
Protocol: (§1) Animals. Obese diabetic (ob/ob) mice derived from the colony maintained at Aston University, UK (Bailey C. J. et al., 1982, Int. J. Obes. 6:11-21) were used at 14-18 weeks of age. Animals were age-matched, divided into groups and housed individually in an air-conditioned room at 22±2° C. with a 12 hour light: 12 hour dark cycle (08:00-20:00 hr). Drinking water and a standard rodent maintenance diet (Trouw Nutrition, Cheshire, UK) were freely available. All animal experiments were carried out in accordance with the UK Animals (Scientific Procedures) Act 1986.
Methods. […] Intraperitoneal glucose tolerance (18 mmol/kg body wt) and insulin sensitivity (50 U/kg body wt) tests were performed at the end of the study period. Blood samples taken from the cut tip of the tail vein of conscious mice at the times indicated in the Figures were immediately centrifuged using a Beckman microcentrifuge (Beckman Instruments, UK) for 30 seconds at 13,000×g. The resulting plasma was then aliquoted into fresh Eppendorf tubes and stored at −20° C. prior to glucose and insulin determinations.

BRIN-BD11 cells = experiment: Insulin secretion from BRIN-BD11 cells; assay type: cell-based
Protocol: Tissue Culture. Chinese Hamster Lung (CHL) fibroblast cells stably transfected with the human GIP-R were cultured in DMEM tissue culture medium containing 10%. (v/v) fetal bovine serum, 1% (v/v) antibiotics (100 U/ml penicillin, 0.1 mg/ml streptomycin) (all from Gibco, Paisley, Strathclyde, Scotland). BRIN-BD11 cells were cultured in RPMI-1640 tissue culture medium containing 10% (v/v) fetal bovine serum, 1% (v/v) antibiotics (100 U/ml penicillin, 0.1 mg/ml streptomycin) and 11.1 mm glucose. The origin and secretory characteristics of these cells have been described in detail previously (McClenaghan, N. H. et al., 1996, Diabetes 45:1132-1140). The cells were maintained in sterile tissue culture flasks (Corning Glass Works, Sunderland, UK) at 37° C. in an atmosphere of 5% CO2 and 95% air using a LEEC incubator (Laboratory Technical Engineering, Nottingham, UK).
Methods. Insulin release from BRIN-BD11 cells was determined by use of cell monolayers as described previously (Gault, V. A. et al. 2002, Biochem. J. 367:913-920). In brief, BRIN-BD11 cells were seeded into 24-well plates (Nunc, Roskilde, Denmark) at a density of 1.5×10^5 cells per well and allowed to attach overnight in RPMI-1640 culture medium at 37° C. Acute tests for insulin secretion were preceded by 40 minutes pre-incubation at 37° C. in 1.0 ml Krebs Ringer Bicarbonate Buffer (KRBB, 115 mm NaCl, 4.7 mm KCl, 1.28 mm CaCl2, 1.2 mM MgSO4, 1.2 mm KH2PO4, 25 mM HEPES and 10 mm NaHCO3; pH 7.4 with NaOH) supplemented with 0.1% (w/v) BSA and 1.1 mM glucose. […] After 20 minutes incubation, the buffer was removed and used for measurement of insulin by radioimmunoassay (Flatt, P. R. and Bailey, C. J., 1981, Diabetologia 5:573-577).

ob/ob mice [2] = experiment: Acute antihyperglycaemic and insulin releasing activity with glucose and native GIP in ob/ob mice; assay type: in vivo, mouse; settings: 25 nmol/kg i.p. with GIP and glucose 18 mmol/kg, vs native GIP
Protocol: as §1
Biochemical analysis. Plasma glucose was assayed by an automated glucose oxidase procedure ([…]) using a Beckman Glucose Analyzer II (Beckman Instruments, Galway, Ireland). Plasma insulin was assayed by radioimmunoassay.
Methods. […] All test solutions were administered in a final volume of 5 ml/kg body weight. Blood samples were collected from the cut tip of the tail vein of conscious mice into chilled fluoride/heparin coated glucose microcentrifuge tubes (Sarstedt, Numbrecht, Germany) immediately prior to injection and at 15, 30 and 60 minutes post injection. Blood samples were immediately centrifuged using a Beckmnan microcentrifuge (Beckman Instruments, High Wycombe, Buckinghamshire, UK) for 30 seconds at 13,000×g. Plasma glucose was assayed using a Beckman Glucose Analyzer n (Beckman Instruments, High Wycombe, Buckinghamshire, UK) (Stevens, J. F., 1971, Clin. Chim. Acta 32:199-201) and plasma insulin was determined by RIA (Flatt, P. R. and Bailey, C. J., 1981, Diabetologia 5:573-577). All animal studies were carried out in accordance with the UK Animals (Scientific Procedures) Act 1986.

In the case of “YAPGTFISDYSIAMDKIHQQDFVNWLLAQKGKKNDWKHNITQ [(Pro^3)GIP]”, the “hypoglycemic action of insulin” value (ob/ob mice [1]) is reported as “significantly augmented”, the “Maximal insulin response (% GIP max)” value (BRIN-BD11 cells; BRIN-BD11 cells, 5.6 mm glucose, 20 min) is reported as 53 ± 5 % GIP max and the “Insulin response in presence of 10^-7 M GIP (% GIP max)” value (BRIN-BD11 cells; BRIN-BD11 cells, 5.6 mm glucose, in presence of 10^-7 M native GIP) is reported as 64 ± 2 % GIP max. For the same sequence, the “effect on GIP-stimulated insulin secretion” value (BRIN-BD11 cells; in presence of GIP (10^-7 m)) was “significantly inhibited” and the “plasma glucose and insulin profiles when administered together with native GIP” value (ob/ob mice [2]) was “significantly inhibited the action of GIP”.
